Experiment [1] is described as follows: Ca2+ affinity by UV spectra during titration of EGTA or HEEDTA buffers. It is filed as binding. The method, then: The titration was done at 22° C. with 10 mL of 100 mM KCl, 10 mM K-MOPS, 10 mM K2 H.HEEDTA, and 14 […] diazo-2 as starting materials, adjusting the pH to 7.24, recording the spectrum, and then discarding 1.0 mL of this solution and replacing with 1.0 mL of 100 mM KCl, 10 mM K.MOPS, 10 mM KCa.HEEDTA, 14 μM diazo-2, readjusting the pH to 7.24, and recording the spectra, which was then in 9 mM K2H.HEEDTA. Subsequent iterations to reach n mM KCa.HEEDTA, (10-n) mM HEEDTA, n=2-10, were done by discarding 10.0/(11-n) mL and replacing with equal volumes of the 10mM KCa.HEEDTA, 14 μM diazo-2 stock. After n=10 had been reached to give free Ca^2+ between 10^-5 and 10^-4 M, addition of 1 mM CaCl2 had no further effect on the spectrum. For clarity only six spectra are including in the figure, n=0, 2, 4, 6, 8, and 10. Each spectrum is labeled with the calculated free [Ca^2+ ] imposed by the HEEDTA buffer, assuming a log effective stability constant of 5.55 at pH 7.24.
The phenylacetate was produced by irradiating a 30 μM solution of diazo-2 in 100 mM KCl, 10 mM Tris.HCl, 10 mM K2 H.HEEDTA, pH 8.40, with Spectroline lamp at 365 nm to completion. The titration was then performed as in A but the pH was maintained at 8.40, at which the calculated log effective stability is constant for HEEDTA was 6.60.
Ca^2+ -binding constants for chelators before and after photolysis were determined by monitoring UV spectra during titration of EGTA or HEEDTA buffers to varying free Ca^2+ levels.
Either the ratio of, for example, [Ca.EGTA] to free [EGTA] was adjusted at a constant pH, or the pH was varied while [Ca.EGTA]=[EGTA]. These two approaches gave equivalent answers for pH>7 whenever directly tested, because of the pH insensitivity of BAPTA-like ligands (see FIG. 1 legend for more details). The apparent dissociation constants of Ca.EGTA and Ca.HEEDTA were calculated as described by R. Y. Tsien (1980); see also R. Y. Tsien, et al. (1986), S. R. Adams, et al. (1980), Grynkiewicz, et al., (1985), and Jackson, et al. (1987).

In experiment [2] the test system is REF52 fibroblast cell. As to the kind of experiment: Intracellular free Ca2+ in REF52 fibroblasts on vasopressin stimulation and UV photolysis (fluo-3). It is filed as cell-based, Fisher rat. The conditions noted are these: for effect of UV photolysis of intracellular chelator on [Ca2+]i (in words): 1 s UV after 50 nM [arg8]-vasopressin. The source says:
The tetraacetoxymethyl esters of diazo-2 and diazo-3 were synthesized. The acetoxymethyl (AM) groups mask the negative charges on the carboxylate functions, so the AM ester of diazo-2 and diazo-3 can easily diffuse across the cell membrane, which is largely impermeable to ions. Once inside the cell, non-specific esterases in the cell hydrolytically cleave the AM esters and restore diazo-2 and diazo-3 to their tetracarboxylate forms, which being polyanions, are trapped within the cell. […] Prior to the start of data acquisition (t=0), the REF52 fibroblast cell was loaded with diazo-2 and fluo-3. […] Its fluorescence quantum yield is enhanced about 40-fold by Ca^2+ binding, which occurs with a Kd of 400 nM.
Prior to the start of data acquisition, the REF52 fibroblast cell was loaded with fluo-3 and diazo-2 by incubation for 30 min at 25° C. DME medium containing 1 μM diazo-2/AM and 10 μM fluo-3/AM. Acquisition of fluo-3 fluorescence intensity images was begun at time 0. The fluorescence intensity data was converted to intracellular Ca^2+ concentrations using a calibration procedure previously described. The event markers correspond to 1) stimulating the cell with 50 nM [arg^8 ]-vasopressin,and 2) flashing the cell for 1 s with UV light.
The experimental conditions were the same as in (A) except that the cell wa loaded with fluo-3 and diazo-3 (instead of diazo-2) by incubation for 90 min at 25° C. in DME medium containing 10 μm fluo-3/AM and […] diazo-3/AM. The event markers correspond to 1) stimulating the cell with 50 nM [arg^8 ]-vasopressin, and 2) flashing the cell for 1 s of UV light.
For preliminary biological tests, Fisher rat embryo fibroblast of the REF52 cell line were cultured as described by J. P. Y. Kao, et al. (1989).
For testing diazo-2, REF52 cells were incubated for 30 min at 25° C. in Dulbecco's modified Eagle's medium, buffered at pH 7.4 with 20 mM HEPES and containing 1 μM diazo-2/AM and 10 μM fluo-3/AM. For control experiments using diazo-3, the cells were incubated for 90 min at 25° C. in DMEM, buffered to pH 7.4 with 20 mM HEPES and containing 1 μM diazo-3/AM and […] fluo-3/AM. After loading, the cells were gently washed, transferred into Hanks' Balanced Salt Solution containing 0.2 mM sulfinpyrazone to inhibit non-specific organic anion transport (see Tsien, 1989), and mounted on a 25° C. microscope stage for experimentation.
Flash photolysis of trapped cellular diazo-2 and the concomitant monitoring of intracellular free Ca^2+ concentration with fluo-3, a fluorescent Ca^2+ indicator, were performed using methodology and instrumentation described in A. Minta, et al (1989) and J. P. Y. Kao, et al. (1989). Briefly, output form a Xe arc lamp was passed through a monochromator to yield the 490 nm light used to probe the fluo-3 trapped intracellularly. The fluo-3 fluorescence images of cells were recorded using a SIT TV camera. Images were stored on a high-resolution monochrome laser disc recorder (Panasonic TQ-2028) for delayed processing. Photolyses were performed by briefly moving a chopper mirror to send broad-band UV from an XBO 75 W xenon arc lamp and UG-2 filter into the microscope instead of 490 nm fluo-3 excitation. The microscope objective (Nikon UV-CF, 40X) was chosen for its high UV transmission and numerical aperture (1.3). […] The same computer was used to analyze the fluorescence images acquired during the experiment.

Experimental findings from US5141627A, “Chelators whose affinity for calcium ion is increased by illumination” (The Regents of the University of California, priority 1989, dated 1992) are described below.

“Also recorded” adds a separate entry of the source. Where two headings read alike, the source gives them in different places.

As to `Cc1ccc(N(CC(=O)O)CC(=O)O)c(OCCOc2cc(C(=O)C=[N+]=[N-])ccc2N(CC(=O)O)CC(=O)O)c1` [diazo-2, 1-(2-bis(carboxymethyl)amino-5-methyl) phenoxy-2-(2-bis(carboxymethyl)amino-5-(diazoacetyl)phenoxy) ethane], the Kd (usually the free concentration of one partner at which half of the binding sites on the other are occupied at equilibrium, for simple one-to-one binding) in experiment [1] (after photolysis, 0.1-0.15M ionic strength, 20-23° C., read-out: Kd (Ca2+), after photolysis) was found to be 0.073 µM; in experiment [1] (before photolysis, 0.1-0.15M ionic strength, pH 7.0-7.4, 20-23° C., read-out: Kd (Ca2+), before photolysis), 2.2 µM. Moreover, the “effect of UV photolysis of intracellular chelator on [Ca2+]i (in words)” value in experiment [2] was “dropped precipitously”. In experiment [2] (after 1 s UV, cell stimulated with 50 nM [arg8]-vasopressin, loaded with diazo-2/AM), the “[Ca2+]i immediately after photolysis” value is given as “about 50 nM”.

`COc1cc(C(=O)C=[N+]=[N-])ccc1N(CC(=O)O)CC(=O)O` [diazo-3, 2-methoxy-4-(diazoacetyl)aniline-N, N-diacetic acid]: in experiment [1] (negligible affinity, pre- and post-photolysis, read-out: Kd (Ca2+)), the equilibrium dissociation constant (Kd) is over 1000 µM. The “effect of UV photolysis of intracellular chelator on [Ca2+]i (in words)” value in experiment [2] is reported as “did not have any effect on the intracellular Ca^2+ concentration; also recorded: no detectable effect on Ca^2+ hemeostasis”.
